According to the NIST ThermoML archive (doi:10.1016/j.jct.2012.01.005):

Tests used:
[1] = refractive index (Na D-line) (dimensionless); details: 298.15 K; 101.33 kPa; Liquid; Standard Abbe refractometry
[2] = Liquid; for mass density: 298.15 K, 101.33 kPa, Buoyancy - hydrostatic balance

ClCC1CO1 (stereo not drawn) [1-chloro-2,3-epoxypropane]
Details	mass density [kg/m3]	refractive index
[1]	–	1.434
[2]	1175.9	–

[2], Visual
Details	vapor or sublimation pressure [kPa]
370.95 K	55.99
384.15 K	88.66
389.35 K	100

CCCC(=O)OCC1CO1 (stereo not drawn) [glycidyl butyrate]
Details	mass density [kg/m3]	refractive index
[1]	–	1.429
[2]	1047	–

[2], Closed cell (Static) method
Details	vapor or sublimation pressure [kPa]
407.85 K	15.74
420.25 K	23.87
427.85 K	29.87
434.15 K	36.41
439.15 K	41.34
444.25 K	46.67
449.15 K	55.99
449.25 K	54.4
453.85 K	62.67
458.15 K	69.6
460.45 K	74.67
464.55 K	82.67
466.55 K	87.33
467.15 K	88.66
468.75 K	93.33
471.15 K	100
